# In patent publication US11725038B2 (priority 2007, dated 2023):
# Substitutions are numbered along the chain they refer to.
# Experiments:
# [1] = target: T1, mutant (M287L) mouse glycine α1 receptor (Mus musculus, UniProt Q64018, M315L); settings: M287L mutation versus wild-type; cited from earlier work
# T1 sequence (Q64018 29-457 M315L): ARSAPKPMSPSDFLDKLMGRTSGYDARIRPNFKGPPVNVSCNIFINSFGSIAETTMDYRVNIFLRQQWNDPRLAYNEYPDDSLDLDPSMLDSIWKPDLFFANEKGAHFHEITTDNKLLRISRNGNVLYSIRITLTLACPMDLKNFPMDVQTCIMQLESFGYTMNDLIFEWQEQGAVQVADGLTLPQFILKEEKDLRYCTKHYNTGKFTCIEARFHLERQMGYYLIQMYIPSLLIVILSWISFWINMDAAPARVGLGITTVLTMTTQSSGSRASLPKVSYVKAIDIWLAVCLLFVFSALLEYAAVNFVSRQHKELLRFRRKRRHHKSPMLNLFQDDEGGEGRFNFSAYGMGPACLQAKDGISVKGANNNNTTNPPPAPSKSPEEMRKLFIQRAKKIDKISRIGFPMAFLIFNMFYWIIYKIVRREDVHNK
# [2] = target: T2, vHGlyRα1 infected HEK 293T cells (Homo sapiens, UniProt P23415); experiment: glycine-mediated whole-cell currents, voltage-clamp recording; type: cell-based; settings: for mean peak current: 24 hours post-infection, MOI 10; for percent desensitization: 100×(1−ISS/Ipeak)
# T2 construct: expressed in transfected cells; host or cells: HEK 293T cells infected with replication-defective HSV vector vHGlyRα1 (HCMV promoter), MOI 10
# T2 sequence (P23415 29-457): T1 sequence (Q64018 29-457 M315L) with L287M, D334E, G337A, N368S, K429Q
# Procedure: (§1) Human embryonic kidney (HEK) 293T cells were maintained as previously described (Qian et al., J. Physiol., 562, 319-31 (2005)). For recordings, HEK 293T cells were plated onto glass coverslips pretreated with poly-D-lysine (0.1 mg/ml) and rat-tail collagen (0.1 mg/ml; BD Biosciences, San Jose, Calif.) in 35 mm culture dishes at 1-2×10^5 cells per dish. 24 hours after plating, the cells were infected with the GlyR-HSV construct. For infections the growth medium was removed, the cells were washed twice with serum free growth medium, and vHGlyRα1 was added at a multiplicity of infection (MOI) of 10. The cells were then incubated at 37° C. for 1 hour. Following incubation, 1.5 ml of growth medium (with serum) was added and the cells were incubated for an additional 24 hours at 37° C. Recordings were then performed 24 hours post-infection at room temperature. Glycine-mediated whole-cell currents were recorded with an Axopatch 200 amplifier (Molecular Devices, Union City, Calif.) in voltage-clamp mode. Solutions were delivered via an in-house fabricated fast perfusion system (Qian et al., J. Physiol., 538, 65-77 (2002)). The external solution contains (in mM): 140 NaCl, 5 KCl, 2 CaCl2), 1 MgCl2, and 10 HEPES; pH is 7.2+0.05, adjusted with NaOH and osmolality 290+10 adjusted with sucrose as needed. The internal solution contains (in mM): 140 CsCl, 1 CaCl2), 1 MgCl2, 2 MgATP, 10 HEPES, and 10 EGTA; pH is 7.3+0.05, adjusted with CsOH and osmolality 300+0.05. Data were recorded with a Digidata 1322A digitizer under the control of pClamp 9.2 software (Molecular Devices) and all analyses were performed with Clampfit 9.2 (Molecular Devices) or Origin 7.0 (OriginLab, Northampton, Mass.). Percent desensitization was measured as 100×(1−ISS/Ipeak), where ISS and IPeak are the amplitudes of current at steady state and peak, respectively.
# [3] = tested on: formalin-induced nociceptive behavior; experiment: rat formalin model of pain; type: in vivo
# Procedure: For in vivo studies, rats were subcutaneously injected with vHGlyRα1 or vHG, a control vector without al GlyR, into the plantar surface of the right hind foot. Analgesic effects of viral injections were assessed one week later by subcutaneous injection of formalin.
# Specifically, 3-month-old male Sprague-Dawley rats (225-250 g) were injected with 200 μl (1×10^8 plaque forming units) of either vHGlyRα1 or vHG into the plantar surface of the right hind foot. One week later the analgesic properties of the vectors was assessed by subcutaneously injecting 50 μl of 2.5% formalin into the right hind foot and assessing pain-related behaviors as previously described (Goss et al., Gene Ther., 8, 551-6 (2001)). […] The beginning of second phase pain varied between animals from 20 to 40 minutes; this variation was independent of the vector used.
# [4] = tested on: uninfected HEK 293T cells; settings: uninfected HEK 293T cells (N=4)
# Procedure: as §1, with “Solutions were delivered via an in-house fabricated fast perfusion system (Qian et al., J. Physiol., 538, 65-77 (2002)). The external solution contains (in mM): 140 NaCl, 5 KCl, 2 CaCl2), 1 MgCl2, and 10 HEPES; pH is 7.2+0.05, adjusted with NaOH and osmolality 290+10 adjusted with sucrose as needed. The internal solution contains (in mM): 140 CsCl, 1 CaCl2), 1 MgCl2, 2 MgATP, 10 HEPES, and 10 EGTA; pH is 7.3+0.05, adjusted with CsOH and osmolality 300+0.05.” left out
# [5] = higher glycine concentration (1 mM)
# [6] = lower glycine concentration (50 uM)
SMILES,sensitivity of the receptor to the volatile anesthetic [1],mean peak current ([2]; 50 uM glycine),mean peak current ([2]; 1 mM glycine),"10-90% rise time [2, 5]","percent desensitization [2, 5]","10-90% rise time [2, 6]","percent desensitization [2, 6]",nociceptive behavior following glycine application ([3]; vHG transfected animals (control vector)),"second phase pain following injection of glycine ([3]; vHGlyRα1-infected animals, 50 μl of 100 mM glycine at the 30 minute time point)",current response to application of glycine [4]
FC(F)OC(F)(F)C(F)Cl (stereo not shown) [enflurane],greatly enhanced sensitivity,,,,,,,,,
NCC(=O)O [glycine],,−3.57+0.59 nA,−9.25+1.47 nA,11.4 ± 1.0 ms,89.8+1.1%,265.2 ± 79.1 ms,73.4+7.3%,"small, transient, non-significant dip",significantly reduced,failed to elicit a current response
